The text below walks through data of US20230167073A1 (Teijin Pharma Limited, priority 2020, published 2023).

The first experiment deals with T1, Human TRPC6 (Homo sapiens, UniProt Q9Y210).
T1 construct: expressed in transfected cells
T1 sequence (Q9Y210 1-931): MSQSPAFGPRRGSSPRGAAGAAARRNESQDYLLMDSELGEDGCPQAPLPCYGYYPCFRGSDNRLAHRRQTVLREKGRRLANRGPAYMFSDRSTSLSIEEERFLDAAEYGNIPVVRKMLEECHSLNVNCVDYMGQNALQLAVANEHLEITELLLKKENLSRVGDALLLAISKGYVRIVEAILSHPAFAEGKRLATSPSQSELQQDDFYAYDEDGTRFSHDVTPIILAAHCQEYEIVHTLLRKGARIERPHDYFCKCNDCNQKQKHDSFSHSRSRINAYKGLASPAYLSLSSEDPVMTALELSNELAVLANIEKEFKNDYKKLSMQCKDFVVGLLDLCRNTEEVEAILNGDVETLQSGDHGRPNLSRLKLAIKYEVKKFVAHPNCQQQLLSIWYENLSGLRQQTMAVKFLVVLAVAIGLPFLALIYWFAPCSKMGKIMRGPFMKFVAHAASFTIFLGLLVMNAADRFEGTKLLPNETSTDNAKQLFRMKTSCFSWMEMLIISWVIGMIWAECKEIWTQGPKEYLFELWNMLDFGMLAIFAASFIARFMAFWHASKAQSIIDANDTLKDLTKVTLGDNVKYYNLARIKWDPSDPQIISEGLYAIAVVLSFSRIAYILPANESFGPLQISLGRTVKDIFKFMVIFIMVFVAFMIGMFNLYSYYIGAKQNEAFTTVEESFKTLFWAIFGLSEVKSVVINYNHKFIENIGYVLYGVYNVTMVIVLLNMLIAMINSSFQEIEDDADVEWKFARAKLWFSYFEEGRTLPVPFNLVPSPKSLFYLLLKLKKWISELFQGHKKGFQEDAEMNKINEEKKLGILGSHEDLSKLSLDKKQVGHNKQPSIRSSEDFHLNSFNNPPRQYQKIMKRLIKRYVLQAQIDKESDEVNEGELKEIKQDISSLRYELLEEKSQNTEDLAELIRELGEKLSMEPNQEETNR
The experiment is described as follows: Evaluation of TRPC6 channel inhibitory activity (1), FLIPR Calcium 5 Assay Kit, OAG stimulation (Compound Nos. 1-1293). It is filed as cell-based.
Conditions: not given
In outline: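 TRPC6 (human) stable cells, 24 h culture; Ca5 no-wash dye + probenecid 30 min; cpd 20 min; OAG 30 μM final; ΔF (pre-cpd min to post-OAG max); 0%/100% = no cpd / no cpd + no OAG; 4PL → pIC50, binned +/++/+++.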
`N#Cc1ccc(-c2ncc(CCN)cn2)c(Oc2cc(N3C4CCC3CC4)ncc2C#N)c1` [compound 748, 4-[2-[5-(2-aminoethyl)pyrimidin-2-yl]-5-cyanophenoxy]-6-(7-azabicyclo[2.2.1]heptan-7-yl)pyridine-3-carbomtrile]: the IC50 is under 10 nM. For `Cc1cc(Oc2cc(C#N)ccc2-c2ncc(CN)cn2)cc(N2C3CCC2CC3)n1` [compound 826, 4-[5-(aminomethyl)pyrimidin-2-yl]-3-[2-(7-azabicyclo[2.2.1]heptan-7-yl)-6-methylpyridin-4-yl]oxybenzonitrile], the IC50 was under 10 nM. Same read-out and setting: with `N#Cc1ccc(-c2ncc(CN)cn2)c(Oc2cc(N3C4CCC3CC4)ncc2C#N)c1` [compound 749, 4-[2-[5-(aminomethyl)pyrimidin-2-yl]-5-cyanophenoxy]-6-(7-azabicyclo[2.2.1]heptan-7-yl)pyridine-3-carbonitrile] the figure was 10 to 1000 nM.

The same experiment, now with this note: Human TRPC6 stably-expressing cells, OAG 30 μM, FLIPR Calcium 5 Assay Kit; read-out: Inhibitory activity (pIC50 class) (converted).
For `Cn1nc(N2CCCC2)cc1C(=O)c1cc(C#N)ccc1-c1ncc(CCN)cn1` [compound 1071, 4-[5-(2-aminoethyl)pyrimidin-2-yl]-3-(2-methyl-5-pyrrolidin-1-ylpyrazole-3-carbonyl)benzonitrile], the IC50 is under 10 nM.

With `N#Cc1ccc(-c2ccc(CCN)cc2)c(Sc2cnnc(N3CCCC3)c2)c1` [compound 1241, 4-[4-(2-aminoethyl)phenyl]-3-(6-pyrrolidin-1-ylpyridazin-4-yl)sulfanylbenzonitrile], the IC50 was under 10 nM.

Turning to `Cc1nc(Oc2cc(C#N)ccc2-n2cc3c(n2)CNCC3)cc(N2CCCCC2)n1` [compound 746, 3-(2-methyl-6-piperidin-1-ylpyrimidin-4-yl)oxy-4-(4,5,6,7-tetrahydropyrazolo[3,4-c]pyridin-2-yl)benzonitrile], the IC50 is over 1000 nM. On the same count and under the same terms, with `CC(C)n1nc(C2CC2)cc1Oc1cc(C#N)ccc1-c1ncc([C@H](O)CN)cn1` [compound 408, 4-[5-[(1S)-2-amino-1-hydroxyethyl]pyrimidin-2-yl]-3-(5-cyclopropyl-2-propan-2-ylpyrazol-3-yl)oxybenzonitrile] the figure was 10 to 1000 nM; with `CCN(c1cc(Oc2cc(C#N)ccc2-c2ncc(CCN)cn2)n(C)n1)C(C)C` [compound 842, 4-[5-(2-aminoethyl)pyrimidin-2-yl]-3-[5-[ethyl(propan-2-yl)amino]-2-methylpyrazol-3-yl]oxybenzonitrile], under 10 nM; with `CCN(CC(F)F)c1cc(Oc2cc(F)ccc2-c2ccc(CCN)cn2)n(C)n1` [compound 990, 5-[2-[5-(2-aminoethyl)pyridin-2-yl]-5-fluorophenoxy]-N-(2,2-difluoroethyl)-N-ethyl-1-methylpyrazole-3-amine], under 10 nM.

With `Cc1nc(Oc2cc(C#N)ccc2-n2cnc(C(O)CN)c2)cc(-c2ccccc2)n1` (stereo not shown) [Compound 200, 4-[4-(2-amino-1-hydroxyethyl)imidazol-1-yl]-3-(2-methyl-6-phenylpyrimidin-4-yl)oxybenzonitrile], the IC50 was over 1000 nM.

Take `Cc1nn(CC(F)(F)F)cc1Oc1cc(F)ccc1-c1ncc(CCN)cn1` [compound 968, 2-[2-[4-fluoro-2-[3-methyl-1-(2,2,2-trifluoroethyl)pyrazol-4-yl]oxyphenyl]pyrimidin-5-yl]ethanamine]: the IC50 was under 10 nM. Turning to `CC(C)(C)CCOc1cc(Oc2cc(C#N)ccc2-c2ccc(CCN)cc2)cnn1` [Compound 126, 4-[4-(2-aminoethyl)phenyl]-3-[6-(3,3-dimethylbutoxy)pyridazin-4-yl]oxybenzonitrile], the IC50 is over 1000 nM. Same read-out and setting: with `Cc1cc(Oc2cc(C#N)ccc2-c2ccc([C@H](O)CN)cn2)cc(C)n1` [compound 437, 4-[5-[(1S)-2-amino-1-hydroxyethyl]pyridin-2-yl]-3-(2,6-dimethylpyridin-4-yl)oxybenzonitrile] the figure was 10 to 1000 nM; with `Cc1nc(Oc2cc(C#N)ccc2-c2ncc(CN)cn2)cc(OC2COC2)n1` [compound 895, 4-[5-(aminomethyl)pyrimidin-2-yl]-3-[2-methyl-6-(oxetan-3-yloxy)pyrimidin-4-yl]oxybenzonitrile], over 1000 nM.

Turning to `CC(C)c1cc(Oc2cc(C#N)ccc2-c2ccc(CN)cn2)n(C)n1` [compound 362, 4-[5-(aminomethyl)pyridin-2-yl]-3-(2-methyl-5-propan-2-ylpyrazol-3-yl)oxybenzonitrile], the IC50 is under 10 nM.

In the case of `Cc1nc(Oc2cc(C#N)ccc2-c2ccc([C@H](O)CN)cn2)cc(N2CCCCC2)n1` [compound 509, 4-[5-[(1S)-2-amino-1-hydroxyethyl]pyridin-2-yl]-3-(2-methyl-6-piperidin-1-ylpyrimidin-4-yl)oxybenzonitrile], the IC50 is under 10 nM. Same read-out and setting: to `CCN(CC)c1cc(Oc2cc(C#N)ccc2-c2ncc([C@H](F)CN)cn2)n(C)n1` [compound 913, 4-[5-[(1S)-2-amino-1-fluoroethyl]pyrimidin-2-yl]-3-[5-(diethylamino)-2-methylpyrazol-3-yl]oxybenzonitrile] belongs under 10 nM; to `Cc1cc(Oc2cc(C#N)ccc2-c2nccc(CN)n2)cc(N2CCOCC2)n1` [compound 681, 4-[4-(aminomethyl)pyrimidin-2-yl]-3-(2-methyl-6-morpholin-4-ylpyridin-4-yl)oxybenzonitrile], over 1000 nM; to `Cn1nc(C2CC2)cc1Oc1cc(C#N)ccc1-c1cc(C(=O)N2CCC[C@@H](N)C2)cn2ccnc12` [compound 757, 4-[6-[(3R)-3-aminopiperidine-1-carbonyl]imidazo[1,2-a]pyridin-8-yl]-3-(5-cyclopropyl-2-methylpyrazol-3-yl)oxybenzonitrile], over 1000 nM. Turning to `Cn1nc(C2CC2)cc1Oc1cc(C#N)ccc1-c1ccc(CN)n2ccnc12` [compound 493, 4-[5-(aminomethyl)imidazo[1,2-a]pyridin-8-yl]-3-(5-cyclopropyl-2-methylpyrazol-3-yl)oxybenzonitrile], the IC50 is under 10 nM. The same measure, in the same setting: to `Cc1nc(Oc2cc(C#N)ccc2-c2ccc(CCN)nc2)cc(N2CCOCC2)n1` [Compound 74, 4-[6-(2-aminoethyl)pyridin-3-yl]-3-(2-methyl-6-morpholin-4-ylpyrimidin-4-yl)oxybenzonitrile] belongs 10 to 1000 nM; to `COC(=O)c1ccccc1-c1cc(Oc2cc(C#N)ccc2-c2ccc(CCN)cc2)cnn1` [Compound 120, methyl 2-[5-[2-[4-(2-aminoethyl)phenyl]-5-cyanophenoxy]pyridazin-3-yl]benzoate], under 10 nM; to `COCCCNCCc1ccc(-c2ccc(C#N)cc2Oc2cc(N3CCOCC3)nc(C)n2)cc1` [Compound 57, 4-[4-[2-(3-methoxypropylamino)ethyl]phenyl]-3-(2-methyl-6-morpholin-4-ylpyrimidin-4-yl)oxybenzonitrile], over 1000 nM. For the molecule `N#Cc1ccc(-c2ccc(CCN)cc2)c(Cn2cnc(-n3cnnn3)c2)c1` [compound 1123, 4-[4-(2-aminoethyl)phenyl]-3-[[4-(tetrazol-1-yl)imidazol-1-yl]methyl]benzonitrile], the IC50 was over 1000 nM. With `Cn1nc(C2CC2)cc1Oc1cc(C#N)ccc1-c1nnc2n1CCNC2` [compound 763, 3-(5-cyclopropyl-2-methylpyrazol-3-yl)oxy-4(5,6,7,8-tetrahydro-[1,2,4]triazolo[4,3-a]pyrazin-3-yl)benzonitrile], the IC50 was over 1000 nM.
